According to patent US6310037A, “Method of controlling protozoan infections using syringomycin-family lipodepsipeptides” (Utah State University, priority 1999, dated 2001):
Values after ≈ are worked out from the molar mass of the structure shown. Read-outs that look alike come from different tables or passages of the source. Where a SMILES comes first, the peptide text is derived from it. Bridges are numbered along the chain shown (N, C = ends). [ ]: non-standard residue; d: D form. The star is where a group is joined. Asp(3S-OH) = N[C@H](C(=O)O)[C@H](O)C(=O)O; Thr(4-Cl) = N[C@H](C(=O)O)[C@H](O)CCl; X1 = CCCCCCCCC[C@@H](O)CC(=O)*; dDab = NCC[C@@H](N)C(=O)O; Dab = NCC[C@H](N)C(=O)O; Dhb = C/C=C(\N)C(=O)O

Experiments:
C. parvum = C. parvum development in BFTE cell culture at pH 6.3; assay type: cell-based, C. parvum (bovine isolate); details: BFTE cells, pH 6.3, day 2 post inoculation
Description: C. parvum (bovine isolate) oocysts used in this study were originally donated by the U.S. Department of Agriculture, Ames, Iowa. The oocysts were isolated from calf manure, preserved in 2.5% potassium dichromate at 4° C., and used within 3 months of purification. Oocysts were decontaminated by suspension in 20% (vol/vol) 1.05% sodium hypochlorite on ice for 20 minutes. Oocysts were then washed three times in Hanks' balanced salt solution ("HBSS") and once in RPMI 1640 (available from Sigma, St. Louis, Mo.). Release of sporozoites was achieved by incubating oocysts in an excystation solution consisting of 0.25% (wt/vol) trypsin (available from Sigma, St. Louis, Mo.) and 0.75% (wt/vol) taurodeoxycholic acid (available from Sigma) in HBSS. The resulting suspension was incubated at 37° C. for 45 minutes and microscopically observed to confirm sporozoite release. Sporozoites were completely separated from intact oocysts and oocyst walls by passage through sterile polycarbonate filters (3 micron pore size, available from Millipore Corp., Bedford, Mass.) twice prior to inoculation of bovine fallopian tube epithelial ("BFTE") cell monolayers.
Primary BFTE cell cultures were prepared from bovine fallopian tubes (FT). […]
The inhibitory effect of Syr-E on C. parvum development was monitored in BFTE cell culture at pH 6.3. […]

L. donovani = assay type: cell-based; details: pH 5.5, 72 hours
Description: L. donovani parasites (WHO designation: MHOM/SD/62/1S-CL2D) used in this study were originally donated by the National Institutes of Health. These parasites were maintained as axenic amastigote-like forms by serial passage at 37°C. in a humid atmosphere containing 5% CO2 using a slightly modified version of the medium described by Joshi et al., Cloning and characterization of differentially expressed genes from in vitro-grown `amastigotes` of Leishmania donovani. Molecular and Biochemical Parasitology, 1993. 58: p. 345-354, the contents of which are incorporated herein by this reference.
L. donovani amastigote-like forms were seeded at 10^6 cells/ml in 96-well flat-bottom plates (Costar) in the amastigote medium described above in the presence or absence of drugs. The final volume in each well was 60 μl. Wells containing control parasites included 1% DMSO, the maximum concentration of the vehicle found in drug-containing samples. Plates were incubated at 37° C. in a humid 5% CO2 atmosphere for 72 hours, then 12 μl of the aqueous CellTiter solution (Promega) was added to each well according to the instructions of the manufacturer. Plates were returned to the 37° C. incubator for a further 4-5 hours, then the absorbance of each well was measured at 490 nm using a SpectraMax Plus plate reader (Molecular Devices, Sunnyvale, Calif.). IC50 values for each of the drugs (the concentration of drug that inhibited the growth of parasites by 50% compared to controls) was determined with the aid of the program SoftMax Pro (Molecular Devices). The log dose response equation y=((a-d)/(1+(x/c)^b))+d was used to calculate IC50 values, where x=drug concentration, y=absorbance at 490 nm, a=upper asymptote, b=slope, c=IC50, and d=lower asymptote.
Activity of Syr-E against L. donovani was determined using a cell-free amastigote culture technique that included the uptake of a vital dye (Cell Titer solution, Promega Corporation) as a measure of parasite viability at 72 hours post inoculation. OD values for serial dilutions of Syr-E were transformed as described for the malaria screen (Example VII) to determine IC50 values against Leishmania. The amastigote assay was performed at a pH of 5.5, which is favorable for Syr-E activity.

SMILES: C/C=C1\NC(=O)[C@H](Cc2ccccc2)NC(=O)[C@H](CCCNC(=N)N)NC(=O)[C@H](CCN)NC(=O)[C@@H](CCN)NC(=O)[C@@H](CO)NC(=O)[C@@H](NC(=O)C[C@H](O)CCCCCCCCC)COC(=O)[C@H]([C@H](O)CCl)NC(=O)[C@H]([C@H](O)C(=O)O)NC1=O [Syr-E, Syringomycin-E] (X1-S[dS][dDab][Dab]RF[Dhb][Asp(3S-OH)][Thr(4-Cl)]; ester 1-C)
- infection percentage vs lower Syr-E concentrations (0.5 to 3.0 μg/ml) (C. parvum; Syr-E 9.0 μg/ml): further reduced the infection percentage significantly (P<0.01)
- infection percentage vs non-treated controls (C. parvum; Syr-E 0.5, 1.0, 3.0 and 9.0 μg/ml): significantly (at least P<0.01) reduced the infection percentage
- OD Values (L. donovani; Sample 1, Concentration 4.00000 (unit not given)): 0.099
- OD Values (L. donovani; Sample 2, Concentration 2.00000 (unit not given)): 0.097
- OD Values (L. donovani; Sample 3, Concentration 1.00000 (unit not given)): 0.090
- OD Values (L. donovani; Sample 4, Concentration 0.50000 (unit not given)): 0.089
- OD Values (L. donovani; Sample 5, Concentration 0.25000 (unit not given)): 0.090
- OD Values (L. donovani; Sample 6, Concentration 0.12500 (unit not given)): 0.102
- OD Values (L. donovani; Sample 7, Concentration 0.06250 (unit not given)): 0.678
- OD Values (L. donovani; Sample 8, Concentration 0.03125 (unit not given)): 0.664
- OD Values (L. donovani; Sample 9, Concentration 0.01563 (unit not given)): 0.709
- OD Values (L. donovani; Sample 10, Concentration 0.00781 (unit not given)): 0.652
- OD Values (L. donovani; Sample 11, Concentration 0.00391 (unit not given)): 0.672
- IC50 (L. donovani; amastigote assay): 0.10115 µg/mL (≈ 0.0825 µM)
